From patent US10954287B2, “Ras binding peptides and methods of use” (Ra Pharmaceuticals, Inc., priority 2016, dated 2021) come the findings set out here.

*1 amine or outer side, *2 acyl side, *3 side chain or, on linkers, in order; H or OH if unused. [ ]: non-standard residue; d: D form. ξ: configuration not given here. DAPTZAC3 = (S)-3-(4-(3-acrylamidopropyl)-1H-1,2,3-triazol-1-yl)-2-aminopropanoic acid, C=CC(=O)NCCCc1cn(C[C@H](N[*:1])C(=O)[*:2])nn1; Trp(7-aza) = N[C@@H](Cc1c[nH]c2ncccc12)C(=O)O; NMePhe(4-F) = CN[C@@H](Cc1ccc(F)cc1)C(=O)O; Tle = CC(C)(C)[C@H](N)C(=O)O; ξPhg = NC(C(=O)O)c1ccccc1; NMeA = CN[C@@H](C)C(=O)O; Nva = CCC[C@H](N)C(=O)O; Sar = CNCC(=O)O

The experiment concerns GMPPNP-loaded H-Ras or GTP-loaded K-Ras. The experiment can be described thus: Fluorescence polarization competition assay with TAMRA-labeled probe R4007. The experiment is classed as binding, human. As to conditions: 120 nM Ras, 30 nM probe R4007, 60 minutes at room temperature; read-out: Probe displacement (nM IC50). The essentials: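 120 nM GMPPNP-loaded H-Ras or GTP-loaded K-Ras was preincubated with 30 nM TAMRA-labeled R4007 probe for 20 min at room temperature in Tris pH 7.5 buffer with MgCl2, EDTA and Triton X-100. Serially diluted competitor was then added for 60 min. Polarization was read at 535/595 nm, with Ki from a one-site Ki fit and IC50 from probe displacement.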
`CCC[C@H](NC(C)=O)C(=O)N[C@H]1CSCc2cccc(c2)CSC[C@@H](C(=O)NCC(=O)NCC(=O)NCC(=O)N[C@@H](CS)C(=O)N[C@H](C(=O)N[C@H](C(=O)N[C@@H](CCSC)C(N)=O)[C@@H](C)CC)C(C)C)NC(=O)CN(C)C(=O)[C@H](Cc2ccc(F)cc2)N(C)C(=O)[C@H](Cc2ccc(O)cc2)NC(=O)[C@H](Cc2c[nH]c3ncccc23)NC(=O)[C@H](c2ccccc2)NC(=O)[C@H](C)N(C)C(=O)[C@H](Cc2c[nH]cn2)NC(=O)[C@H](CCCCN)NC(=O)[C@H](C(C)(C)C)NC(=O)[C@H](Cc2ccc(O)cc2)NC1=O` (relative stereo) [Compound R4127, ACE-NVA-CYS*-TYR-TBG-LYS-HIS-NMA-PHG-7AW-TYR-MFF-SAR-CYS*-GLY-GLY-GLY-CYS-VAL-ILE-MET-NH2]: the half-maximal inhibitory concentration (IC50) was determined as 148 nM.

`C=CC(=O)NCCC[C@H]1C(=O)N[C@@H](c2ccccc2)C(=O)N[C@@H](Cc2c[nH]c3ncccc23)C(=O)N[C@@H](Cc2ccc(O)cc2)C(=O)N(C)[C@@H](Cc2ccc(F)cc2)C(=O)N(C)CC(=O)N[C@H](C(N)=O)CSCc2cccc(c2)CSC[C@H](NC(=O)[C@H](CCC)NC(C)=O)C(=O)N[C@@H](Cc2ccc(O)cc2)C(=O)N[C@@H](C(C)(C)C)C(=O)N[C@@H](C)C(=O)N[C@@H](Cc2c[nH]cn2)C(=O)N1C` (relative stereo) [Compound R4142, ACE-NVA-CYS*-TYR-TBG-ALA-HIS-MORAC-PHG-7AW-TYR-MFF-SAR-CYS*-NH2]: the IC50 came to 1240 nM.

For the molecule `C=CC(=O)NCCCC[C@H]1C(=O)N[C@@H](c2ccccc2)C(=O)N[C@@H](Cc2c[nH]c3ncccc23)C(=O)N[C@@H](Cc2ccc(O)cc2)C(=O)N(C)[C@@H](Cc2ccc(F)cc2)C(=O)N(C)CC(=O)N[C@H](C(N)=O)CSCc2cccc(c2)CSC[C@H](NC(=O)[C@H](CCC)NC(C)=O)C(=O)N[C@@H](Cc2ccc(O)cc2)C(=O)N[C@@H](C(C)(C)C)C(=O)N[C@@H](C)C(=O)N[C@@H](Cc2c[nH]cn2)C(=O)N1C` (relative stereo) [Compound R4133, ACE-NVA-CYS*-TYR-TBG-ALA-HIS-MKAC-PHG-7AW-TYR-MFF-SAR-CYS*-NH2], the IC50 was found to be 342 nM.

`CCC[C@H](NC(C)=O)C(=O)N[C@H]1CSCc2cccc(c2)CSC[C@@H](C(N)=O)NC(=O)CN(C)C(=O)[C@H](Cc2ccc(F)cc2)N(C)C(=O)[C@H](Cc2ccc(O)cc2)NC(=O)[C@H](Cc2c[nH]c3ncccc23)NC(=O)[C@H](c2ccccc2)NC(=O)[C@H](C)N(C)C(=O)[C@H](Cc2c[nH]cn2)NC(=O)[C@H](CCCCN)NC(=O)[C@H](C(C)(C)C)NC(=O)[C@H](C)NC1=O` (relative stereo) [Compound R4152, ACE-NVA-CYS*-ALA-TBG-LYS-HIS-NMA-PHG-7AW-TYR-MFF-SAR-CYS*-NH2]: the 50% inhibitory concentration (IC50) amounted to 28300 nM.

`CCC[C@H](NC(C)=O)C(=O)N[C@H]1CSCc2cccc(c2)CSC[C@@H](C(=O)NCC(=O)N[C@@H](CS)C(=O)N[C@@H](CCSC)C(=O)N[C@@H](CO)C(=O)N[C@@H](CS)C(=O)N[C@@H](CCCCN)C(=O)N[C@@H](CS)C(=O)N[C@H](C(=O)N[C@@H](CC(C)C)C(=O)N[C@@H](CO)C(N)=O)C(C)C)NC(=O)CN(C)C(=O)[C@H](Cc2ccc(F)cc2)N(C)C(=O)[C@H](Cc2ccc(O)cc2)NC(=O)[C@H](Cc2c[nH]c3ncccc23)NC(=O)[C@H](c2ccccc2)NC(=O)[C@H](C)N(C)C(=O)[C@H](Cc2c[nH]cn2)NC(=O)[C@H](CCCCN)NC(=O)[C@H](C(C)(C)C)NC(=O)[C@H](Cc2ccc(O)cc2)NC1=O` (relative stereo) [Compound R4116, ACE-NVA-CYS*-TYR-TBG-LYS-HIS-NMA-PHG-7AW-TYR-MFF-SAR-CYS*-GLY-CYS-MET-SER-CYS-LYS-CYS-VAL-LEU-SER-NH2]: the IC50 was 35.7 nM.

Turning to `CCC[C@H](NC(C)=O)C(=O)N[C@H]1CSCc2cccc(c2)CSC[C@@H](C(=O)N[C@H](CO)C(=O)N[C@H](C)C(=O)N[C@@H](CCCCN)C(=O)N[C@@H](CSSC(C)(C)C)C(=O)N[C@H](C(=O)N[C@H](C(=O)N[C@@H](CCSC)C(=O)O)[C@@H](C)CC)C(C)C)NC(=O)CN(C)C(=O)[C@H](Cc2ccc(F)cc2)N(C)C(=O)[C@H](Cc2ccc(O)cc2)NC(=O)[C@H](Cc2c[nH]c3ncccc23)NC(=O)[C@H](c2ccccc2)NC(=O)[C@H](C)N(C)C(=O)[C@H](Cc2c[nH]cn2)NC(=O)[C@H](CCCCN)NC(=O)[C@H](C(C)(C)C)NC(=O)[C@H](Cc2ccc(O)cc2)NC1=O` (relative stereo) [Compound R4111, ACE-NVA-CYS*-TYR-TBG-LYS-HIS-NMA-PHG-7AW-TYR-MFF-SAR-CYS*-DSER-DALA-LYS-TDSPA-VAL-ILE-MET], the concentration for half-maximal inhibition (IC50) came to 20.8 nM.

Regarding `CCC[C@H](NC(C)=O)C(=O)N[C@H]1CSCc2cccc(c2)CSC[C@@H](C(N)=O)NC(=O)CN(C)C(=O)[C@H](Cc2ccc(F)cc2)N(C)C(=O)[C@H](Cc2ccc(O)cc2)NC(=O)[C@H](Cc2c[nH]c3ncccc23)NC(=O)[C@H](c2ccccc2)NC(=O)[C@H](C)N(C)C(=O)[C@H](CN)NC(=O)[C@H](C)NC(=O)[C@H](C(C)(C)C)NC(=O)[C@H](Cc2ccc(O)cc2)NC1=O` (relative stereo) [Compound R4141, ACE-NVA-CYS*-TYR-TBG-ALA-DAP-NMA-PHG-7AW-TYR-MFF-SAR-CYS*-NH2], the IC50 turned out to be 695 nM.

As for `CC(=O)N[C@@H](CO)C(=O)N[C@H]1CSCc2cccc(c2)CSC[C@@H](C(N)=O)NC(=O)CN(C)C(=O)[C@H](Cc2ccc(F)cc2)N(C)C(=O)[C@H](Cc2ccc(O)cc2)NC(=O)[C@H](Cc2c[nH]c3ncccc23)NC(=O)[C@H](c2ccccc2)NC(=O)[C@H](C)N(C)C(=O)[C@H](Cc2c[nH]cn2)NC(=O)[C@H](CCCCN)NC(=O)[C@H](C(C)(C)C)NC(=O)[C@H](Cc2ccc(O)cc2)NC1=O` (relative stereo) [Compound R4104, ACE-SER-CYS*-TYR-TBG-LYS-HIS-NMA-PHG-7AW-TYR-MFF-SAR-CYS*-NH2], the half-inhibitory concentration (IC50) worked out at 3.29 nM.

In the case of `CCC[C@H](NC(C)=O)C(=O)N[C@H]1CSCc2cccc(c2)CSC[C@@H](C(=O)NCC(=O)NCC(=O)NCC(=O)N[C@@H](CS)C(=O)N[C@@H](C)C(=O)N[C@H](C(=O)N[C@@H](CC(C)C)C(N)=O)[C@@H](C)CC)NC(=O)CN(C)C(=O)[C@H](Cc2ccc(F)cc2)N(C)C(=O)[C@H](Cc2ccc(O)cc2)NC(=O)[C@H](Cc2c[nH]c3ncccc23)NC(=O)[C@H](c2ccccc2)NC(=O)[C@H](C)N(C)C(=O)[C@H](Cc2c[nH]cn2)NC(=O)[C@H](CCCCN)NC(=O)[C@H](C(C)(C)C)NC(=O)[C@H](Cc2ccc(O)cc2)NC1=O` (relative stereo) [Compound R4120, ACE-NVA-CYS*-TYR-TBG-LYS-HIS-NMA-PHG-S7AW-TYR-MFF-AR-CYS*-GLY-GLY-GLY-CYS-ALA-ILE-LEU-NH2], the IC50 was 65.7 nM.

Regarding `CCC[C@H](NC(=O)CCCCCCNC(=O)[C@H](CC(C)C)NC(=O)[C@@H](O)[C@H](N)Cc1ccccc1)C(=O)N[C@H]1CSCc2cccc(c2)CSC[C@@H](C(N)=O)NC(=O)CN(C)C(=O)[C@H](Cc2ccc(F)cc2)N(C)C(=O)[C@H](Cc2ccc(O)cc2)NC(=O)[C@H](Cc2c[nH]c3ncccc23)NC(=O)[C@H](c2ccccc2)NC(=O)[C@H](C)N(C)C(=O)[C@H](Cc2c[nH]cn2)NC(=O)[C@H](CCCCN)NC(=O)[C@H](C(C)(C)C)NC(=O)[C@H](Cc2ccc(O)cc2)NC1=O` (relative stereo) [Compound R4106, UBX-AHPA-NVA-CYS*-TYR-TBG-LYS-HIS-NMA-PHG-7AW-TYR-MFF-SAR-CYS*-NH2], the IC50 came out at 8.38 nM.

Take `CCC[C@H](NC(C)=O)C(=O)N[C@H]1CSCc2cccc(c2)CSC[C@@H](C(=O)N[C@H](CO)C(=O)N[C@H](C)C(=O)NCC(=O)N[C@@H](CS)C(=O)N[C@H](C(=O)N[C@H](C(=O)N[C@@H](CCSC)C(=O)O)[C@@H](C)CC)C(C)C)NC(=O)CN(C)C(=O)[C@H](Cc2ccc(F)cc2)N(C)C(=O)[C@H](Cc2ccc(O)cc2)NC(=O)[C@H](Cc2c[nH]c3ncccc23)NC(=O)[C@H](c2ccccc2)NC(=O)[C@H](C)N(C)C(=O)[C@H](Cc2c[nH]cn2)NC(=O)[C@H](CCCCN)NC(=O)[C@H](C(C)(C)C)NC(=O)[C@H](Cc2ccc(O)cc2)NC1=O` (relative stereo) [Compound R4102, ACE-NVA-CYS*-TYR-TBG-LYS-HIS-NMA-PHG-7AW-TYR-MFF-SAR-CYS*-DSER-DALA-GLY-CYS-VAL-ILE-MET]: the IC50 was determined as 1.82 nM.

As to “ACE-NVA-SER-TYR-TBG-ALA-DAPTZAC3-NMA-RPHG-7AW-TYR-MFF-SAR-SER-NH2 (Ac-[Nva]SY[Tle]A[DAPTZAC3][NMeA][ξPhg][Trp(7-aza)]Y[NMePhe(4-F)][Sar]S-NH2) [Compound R4148, linear]”, the IC50 stood at 6000 nM.

For the molecule `CCC[C@H](NC(C)=O)C(=O)N[C@H]1CSCc2cccc(c2)CSC[C@@H](C(N)=O)NC(=O)[C@H](C)N(C)C(=O)[C@H](Cc2ccc(F)cc2)N(C)C(=O)[C@H](Cc2ccc(O)cc2)NC(=O)[C@H](Cc2c[nH]c3ncccc23)NC(=O)[C@@H](c2ccccc2)NC(=O)[C@H](C)N(C)C(=O)[C@H](Cc2c[nH]cn2)NC(=O)[C@H](CCCCN)NC(=O)[C@H](C(C)(C)C)NC(=O)[C@H](Cc2ccc(O)cc2)NC1=O` (relative stereo) [Compound R4121, ACE-NVA-CYS*-TYR-TBG-LYS-HIS-NMA-DPHG-7AW-TYR-MFF-NMA-CYS*-NH2], the IC50 came to 73 nM.

In the case of `CCC[C@H](NC(C)=O)C(=O)N[C@H]1CSCc2cccc(c2)CSC[C@@H](C(=O)O)NC(=O)CN(C)C(=O)[C@H](Cc2ccc(F)cc2)N(C)C(=O)[C@H](Cc2ccc(O)cc2)NC(=O)[C@H](Cc2c[nH]c3ncccc23)NC(=O)[C@H](c2ccccc2)NC(=O)[C@H](C)N(C)C(=O)[C@H](Cc2c[nH]cn2)NC(=O)[C@H](CCCCNC(CC(C)C)=C2C(=O)CC(C)(C)CC2=O)NC(=O)[C@H](C(C)(C)C)NC(=O)[C@H](Cc2ccc(O)cc2)NC1=O` (relative stereo) [Compound R4135, ACE-NVA-CYS*-TYR-TBG-LYS-(DDE)-HIS-NMA-PHG-7AW-TYR-MFF-SAR-CYS*], the IC50 is 364 nM.
